Data from patent US5661151A, “Tetrahydrofuran antifungals” (Schering Corporation, priority 1995, dated 1997).
In brackets after ≈: the same amount, converted by molar mass.

Legend:
Candida krusei [1] = assay: In vitro broth dilution MFC, Candida krusei; assay type: cell-based; conditions: 16 strains
Description: (§1) The in vitro antifungal activity tests were performed via conventional broth dilution methods in Sabouraud dextrose broth ("SDB") medium and Eagles Minimum Essential Medium ("EMEM") against a large number of fungi. Minimum Inhibitory Concentrations ("MICs") were measured after 24, 48 and 72 hour tests. In many cases, Minimum Fungicidial Concentrations ("MFCS") were measured after 48 and 72 hours.

Dermatophytes [2] = assay: In vitro broth dilution MFC, dermatophytes; assay type: cell-based, T. rubrum, T. mentagrophytes, and T. tonsurans; conditions: 6 strains
Description: as §1

Cryptococcus neoformans [3] = assay: In vitro broth dilution MIC, Cryptococcus neoformans; assay type: cell-based; conditions: 3 strains
Description: as §1

Aspergillus [4] = assay: In vitro broth dilution MFC, Aspergillus; assay type: cell-based, Aspergillus flavus, fumigatus and other species; conditions: 37 strains
Description: as §1

Aspergillus [5] = assay: In vitro broth dilution MIC, Aspergillus; assay type: cell-based, Aspergillus flavus, fumigatus and other species; conditions: for MIC90: read-out: MIC 90 (Minimum Inhibitory Concentrations for 90% of the strains)
Description: as §1

Candida glabrata [6] = assay: In vitro broth dilution MIC, Candida glabrata; assay type: cell-based; conditions: 9 strains; for MIC90: Nakaseomyces glabratus, read-out: MIC 90 (Minimum Inhibitory Concentrations for 90% of the strains)
Description: as §1

Candida albicans [7] = assay: In vitro broth dilution MIC, Candida albicans; assay type: cell-based; conditions: 26 strains; for MIC90: read-out: MIC 90 (Minimum Inhibitory Concentrations for 90% of the strains)
Description: as §1

Candida albicans [8] = conditions: 26 strains
Description: as §1

Candida krusei [9] = assay: In vitro broth dilution MIC, Candida krusei; assay type: cell-based; conditions: 16 strains
Candida glabrata [10] = assay: In vitro broth dilution MFC, Candida glabrata; assay type: cell-based; conditions: 9 strains
Description: as §1

Cryptococcus neoformans [11] = assay: In vitro broth dilution MFC, Cryptococcus neoformans; assay type: cell-based; conditions: 3 strains
Description: as §1

[12] = system: Candida tropicalis & stellatoidea; conditions: 5 strains
Description: as §1

Dermatophytes [13] = assay: In vitro broth dilution MIC, dermatophytes; assay type: cell-based, T. rubrum, T. mentagrophytes, and T. tonsurans; conditions: 6 strains
[14] = system: Candida tropicalis & stellatoidea; assay: In vitro broth dilution MIC, Candida tropicalis & stellatoidea; assay type: cell-based; conditions: 5 strains
Description: as §1

[15] = system: cytochrome P-450 liver drug metabolizing enzymes; assay: Induction of cytochrome P-450 liver drug metabolizing enzymes in an in vivo rat model; conditions: after oral administration
[16] = Serum levels, serum half lives and tissue distribution following oral dosing; assay type: in vivo, mice, rats, dogs and monkeys

SMILES | Percentage of strains with MFCs ≤1 mcg/ml (Candida krusei [1]) [PERCENTAGE] | Percentage of strains with MFCs ≤1 mcg/ml (Dermatophytes [2]) [PERCENTAGE] | MIC 90 (Minimum Inhibitory Concentrations for 90% of the strains) (Cryptococcus neoformans [3]) | Percentage of strains with MFCs ≤1 mcg/ml (Aspergillus [4]) [PERCENTAGE] | MIC90 (Aspergillus [5]; Aspergillus, 37 strains) [µg/mL] | MIC90 (Candida glabrata [6]) [µg/mL] | MIC90 (Candida albicans [7]) [µg/mL] | further results
CC[C@H]([C@H](C)O)n1ncn(-c2ccc(N3CCN(c4ccc(OC[C@@H]5CO[C@@](Cn6cncn6)(c6ccc(F)cc6F)C5)cc4)CC3)cc2)c1=O | 88 | 67 | .05 MCG/ML | 50 | 0.122 (≈ 0.174 µM) | 28.8 (≈ 41.1 µM) | 0.274 (≈ 0.391 µM) | 
OC(Cn1cncn1)(Cn1cncn1)c1ccc(F)cc1F [FLZ, fluconazole] | 0 | 0 |  | 0 | 29.9 (≈ 97.6 µM) | 29.3 (≈ 95.7 µM) | 0.887 (≈ 2.9 µM) | Percentage of strains with MFCs ≤1 mcg/ml (Candida albicans [8]): 100 PERCENTAGE; Percentage of strains with MICs ≤1 mcg/ml (Candida krusei [9]): 0 PERCENTAGE; MIC90 (Candida krusei [9]; Pichia kudriavzevii, read-out: MIC 90 (Minimum Inhibitory Concentrations for 90% of the strains)): 29.9 µg/mL (≈ 97.6 µM); Percentage of strains with MICs ≤1 mcg/ml (Cryptococcus neoformans [3]): 0 PERCENTAGE; MIC90 (Cryptococcus neoformans [3]; read-out: MIC 90 (Minimum Inhibitory Concentrations for 90% of the strains)): 25.9 µg/mL (≈ 84.6 µM); Percentage of strains with MFCs ≤1 mcg/ml (Candida glabrata [10]): 0 PERCENTAGE; Percentage of strains with MFCs ≤1 mcg/ml (Cryptococcus neoformans [11]): 0 PERCENTAGE; Percentage of strains with MFCs ≤1 mcg/ml [12]: 100 PERCENTAGE; Percentage of strains with MICs ≤1 mcg/ml (Dermatophytes [13]): 100 PERCENTAGE; Percentage of strains with MICs ≤1 mcg/ml [14]: 100 PERCENTAGE; MIC90 ([14]; Candida tropicalis, read-out: MIC 90 (Minimum Inhibitory Concentrations for 90% of the strains)): 0.917 µg/mL (≈ 2.99 µM); Percentage of strains with MICs ≤1 mcg/ml (Aspergillus [5]; Aspergillus, 37 strains): 0 PERCENTAGE; MIC (Aspergillus [5]; SDB, 37 species of Aspergillus, read-out: geometric mean MICs): ≥ 32 µg/mL; Percentage of strains with MICs ≤1 mcg/ml (Candida glabrata [6]): 0 PERCENTAGE; Percentage of strains with MICs ≤1 mcg/ml (Candida albicans [7]): 100 PERCENTAGE
CCC(C(C)O)n1ncn(-c2ccc(N3CCN(c4ccc(OCC5COC(Cn6cncn6)(c6ccc(F)cc6F)C5)cc4)CC3)cc2)c1=O (centres unmarked) [drawing 21] |  |  |  |  |  |  |  | induction of various cytochrome P-450 liver drug metabolizing enzymes [15]: not inducers; serum half lives ([16]; following O.D. dosing): very long serum half lives; serum levels compared to azoles of similar structure ([16]; mice, rats, dogs and monkeys, oral dosing with a methyl cellulose formulation): consistently higher serum levels
CCC(C(C)O)n1ncn(-c2ccc(N3CCN(c4ccc(OCC5COC(Cn6cncn6)(c6ccc(F)cc6F)C5)cc4)CC3)cc2)c1=O (centres unmarked) [drawing 23] | 94 | 83 | .007 MCG/ML | 62 |  |  |  | 
CCC(C(C)O)n1ncn(-c2ccc(N3CCN(c4ccc(OCC5COC(Cn6cncn6)(c6ccc(F)cc6F)C5)cc4)CC3)cc2)c1=O (centres unmarked) [drawing 24] | 100 | 100 |  | 89 |  |  |  | 
